Experimental data from patent US20200253864A1, “VOLATILE ANESTHETIC COMPOSITIONS COMPRISING EXTRACTIVE SOLVENTS FOR REGIONAL ANESTHESIA AND/OR PAIN RELIEF” (The Board of Regents of the University of Texas System, priority 2008, published 2020).
Values joined by “and” are separate entries in the source; they are usually repeats but may differ in a detail not shown here. Identical values can stand only once.

Tests used:
[1] = Stability/volatility: weighing remaining isoflurane in uncapped vials over time; assay type: physicochemical; details: for Effect of the solvent on the volatility of isoflurane: solution versus pure isoflurane (Table 6)
Procedure: The stability of isoflurane in the compositions was determined in two ways. Firstly, the compositions were examined for the presence of phase separation at the macroscopic level. Secondly, isoflurane content of the compositions were determined by weighing the remaining isoflurane in the composition when they were left uncapped over time. […] The other vials received varying amounts of isoflurane. They were left uncapped in the hood. Over time (0, 0.4, 1 , 16 , 24 h), the vials were weighed to see if the isoflurane stayed in the composition or evaporated. The amount evaporated over time in the vehicle was subtracted from that in the isoflurane composition, and therefore the amount of isoflurane in the vehicle was roughly determined at each time point.
Pure form of isoflurane is a volatile agent. In order to determine the volatility of isoflurane, two vials received the indicated amounts of pure form of isoflurane. The vials were placed in the chemical fume hood and left uncapped. The vials were weighed in the indicated times to determine the amount of evaporated isoflurane. As it is shown in the table below 0.7893g isoflurane was evaporated within 3 hrs whereas 3.4825 g isoflurane took approximately 8 hrs to evaporate completely. These amounts of isoflurane are similar to the amounts of isoflurane that were used to prepare isoflurane (iso) compositions as shown below.

Sprague-Dawley rats = assay: Intrathecal injection of isoflurane or sevoflurane, hotplate test (thermal withdrawal latency); assay type: in vivo, rat; details: for Thermal withdrawal latency, Average (per rat): average of three tests, both paws; for Thermal withdrawal latency, Group Average: four rats; for Thermal withdrawal latency, Test 1 Left / Thermal withdrawal latency, Test 1 Right / Thermal withdrawal latency, Test 2 Left / Thermal withdrawal latency, Test 2 Right / Thermal withdrawal latency, Test 3 Left / Thermal withdrawal latency, Test 3 Right: individual rats, cutoff 25 seconds; for Adverse effects / Full recovery from the intrathecal injection (return to thermal latency baseline): intrathecal 2 microliters, rats; for Analgesic effect: intrathecally delivered dose of 2 microliters
Procedure: This study was designed to evaluate efficacy of direct intrathecal injection of anesthetic agent gases in reducing pain and providing analgesia. The study was conducted over a one (1) month period using anesthetic gases isoflurane and sevoflurane injected directly intrathecally or dissolved in saline as shown in the studies below. The subject animal used was the rat, since the rat has a well-established model of pain/analgesia testing. In particular, Sprague-Dawley rats weighing over 350gm were used. The rats were anesthetized with pentobarbital (50mg/kg), and the anesthetic depth of the animals was determined by corneal reflex and paw withdrawal reflex to a noxious stimulus.
[…]. A midline surgical dissection of the posterior neck muscles was performed to obtain access to the occipito-atlantoid membrane. This membrane was identified and then dissected. A sterile polyethylene catheter was introduced in the subarachnoid space until the lumbar enlargement of the spinal cord (approximately 7-8 cm measured in each animal). The surgical wound was closed, first suturing the neck muscles with 3-0 silk sutures and then closing the skin incision with staples.
After the surgery, the rats were moved to their cages and a radiant lamp was placed over the cages so that the rats would not undergo anesthetic-induced hypothermia. The rats were continuously monitored from the end of the surgery until they were fully awake. Rats showing any motor impairment after surgery were euthanized.
On the fifth day after surgery, those rats without wound infection or motor dysfunction were transported to the pain behavioral lab to enter the intrathecal study with volatile anesthetics. Twelve rats were selected for the study. All these rats had intrathecal catheters.
Isoflurane (1-chloro-2,2,2-trifluoroethyl difluoromethyl ether) and sevoflurane (fluoromethyl 2,2,2-trifluoro-1-(trifluoromethyl) ethyl ether) were used as the halogenated ether compounds. Both of these are halogenated volatile anesthetic agents, with isoflurane manufactured by Baxter and sevoflurane manufactured by Abbott Laboratories. The 12 rats were divided into 3 groups of four rats each for study A and B.
In the first group, 2 microliters of preservative-free normal saline was injected via the intrathecal catheter into each rat. This catheter was then flushed with preservative-free normal saline. Pain behavioral testing on this group was then performed.
In the second group, 2 microliters of isoflurane was injected via the intrathecal catheter into each rat. This catheter was also flushed with preservative-free normal saline. This group was then subjected to pain behavioral testing.
In the third group, 2 microliters of sevoflurane was injected via the intrathecal catheter into each rat. This catheter was also flushed with preservative-free normal saline. This group was then subjected to pain behavioral testing.
A “hotplate” behavioral test was used to evaluate pain perception and analgesia. The pain behavioral testing model used in these studies have been well established by Tony Yaksh. (See, e.g. Chaplan et al., 1994; Yaksh et al., 2001; Kim and Chung, 1992; Sorkin et al., 2001). This test involves determining how quickly a rat will withdraw its hind paw in response to a noxious stimulus such as a radiant heat source placed directly underneath its paw. This time for withdrawal is known as “thermal withdrawal latency”.
Rats were transferred for testing onto a modified Hargreaves apparatus with a heated glass plate maintained at 25° C. (see Hargreaves et al., 1988). A focused projection bulb below the plate was aimed at the mid-plantar surface of the paw. A photodiode-activated timer measured the withdrawal latency, and a cutoff time of 25 seconds was used to prevent tissue damage. Thermal withdrawal latency to radiant heat was measured at 5 minutes and 30 minutes after each intrathecal injection. Each paw was tested three times, and the results were averaged. […]

rats = assay: Plantar Heat Stimulation Test (paw withdrawal latency) after subcutaneous injection into hindpaw; assay type: in vivo, rat; details: for Antinociceptive effect, treated versus untreated (contralateral) paw: 100 μl subcutaneously into hindpaw (pure isoflurane n=4; 2% lidocaine n=3), P<0.05
Procedure: Intraplanar Administration of Isoflurane: 100 μl of pure form Isoflurane or 100 μl of 2% Lidocaine was injected subcutaneously into the planar surface of the hindpaw. Every rat, the contralateral hindpaw, served as its own control.
Measurement of Paw Withdrawal Latency: Rats are tested for response to thermal stimulation using radiant heat (Planar Analgesia Instrument, UgoBasile, Italy). After the rats acclimate for 15 min under the acrylic boxes that allow minimal movement, the heat source was positioned beneath the mid-plantar surface of the hind paw. Withdrawal latency is defined as the period of time from the beginning of the thermal stimulation to the brisk withdrawal of the hind paw. To avoid tissue damage, a cutoff time of 22s was set. Thermal stimulation was applied three times to each hind paw at an inter-stimulus interval of 3-5 min. Thermalnociceptive threshold was assessed before and after the treatment. An increase in the withdrawal threshold in the treated paw compared to the control paw is assessed as analgesic activity of the tested formulation.
Statistical Analysis: For statistical comparison, student paired t-test analysis was used. Differences were considered significant at P<0.05.

[2] = 5 minutes after 2 microliters intrathecal
[3] = 5 minutes after 2 microliters intrathecal, saline control group 8.33
[4] = 30 minutes after 2 microliters intrathecal
[5] = 30 minutes after 2 microliters intrathecal, saline control group 8.40
[6] = 100 μl subcutaneously into hindpaw

| SMILES | Thermal withdrawal latency, Average (per rat) (Sprague-Dawley rats; [2]) | Thermal withdrawal latency, Group Average (Sprague-Dawley rats; [3]) [s] | Thermal withdrawal latency, Test 1 Left (Sprague-Dawley rats; [2]) | Thermal withdrawal latency, Test 1 Right (Sprague-Dawley rats; [2]) | Thermal withdrawal latency, Test 2 Left (Sprague-Dawley rats; [2]) | Thermal withdrawal latency, Test 2 Right (Sprague-Dawley rats; [2]) | Thermal withdrawal latency, Test 3 Left (Sprague-Dawley rats; [2]) | Thermal withdrawal latency, Test 3 Right (Sprague-Dawley rats; [2]) | Thermal withdrawal latency, Average (per rat) (Sprague-Dawley rats; [4]) | Thermal withdrawal latency, Group Average (Sprague-Dawley rats; [5]) [s] | Thermal withdrawal latency, Test 1 Left (Sprague-Dawley rats; [4]) | Thermal withdrawal latency, Test 1 Right (Sprague-Dawley rats; [4]) | Thermal withdrawal latency, Test 2 Left (Sprague-Dawley rats; [4]) | Thermal withdrawal latency, Test 2 Right (Sprague-Dawley rats; [4]) | Thermal withdrawal latency, Test 3 Left (Sprague-Dawley rats; [4]) | Thermal withdrawal latency, Test 3 Right (Sprague-Dawley rats; [4]) | Adverse effects (Sprague-Dawley rats) | Full recovery from the intrathecal injection (return to thermal latency baseline) (Sprague-Dawley rats) [min] | Analgesic effect (Sprague-Dawley rats) | Start of the antinociceptive effect (rats; [6]) [min] | other results |
| --- | --- | --- | --- | --- | --- | --- | --- | --- | --- | --- | --- | --- | --- | --- | --- | --- | --- | --- | --- | --- | --- |
| FC(F)OC(Cl)C(F)(F)F (stereo not drawn) [Isoflurane, 1-chloro-2,2,2-trifluoroethyl difluoromethyl ether] | 19.25 s and 18.21 s and 18.63 s and 17.95 s | 18.51 | 17.23 s and 19.24 s and 18.11 s and 19.71 s | 19.81 s and 17.19 s and 19.20 s and 20.31 s | 18.91 s and 17.65 s and 19.80 s and 17.18 s | 20.38 s and 15.88 s and 17.90 s and 18.34 s | 18.82 s and 20.72 s and 20.07 s and 16.38 s | 20.34 s and 18.59 s and 16.71 s and 16.75 s | 9.48 s and 8.93 s and 10.52 s and 9.21 s | 9.53 | 9.12 s and 6.35 s and 8.37 s and 10.27 s | 9.87 s and 9.08 s and 6.32 s and 9.41 s | 9.02 s and 8.22 s and 8.45 s and 7.04 s | 10.59 s and 7.81 s and 9.48 s and 6.76 s | 9.77 s and 11.62 s and 10.48 s and 10.32 s | 8.54 s and 10.49 s and 11.03 s and 7.88 s | None of the rats in the study experienced adverse effects | 30 | analgesic effect | 25 | % remaining iso, 0 h ([1]; 0 h): 100%; Time for isoflurane to evaporate ([1]; 0.7893 g pure isoflurane, uncapped): ≤ 3 h; Time for isoflurane to evaporate completely ([1]; 3.4825 g pure isoflurane, uncapped): approximately 8 hrs; % remaining iso, 5 h ([1]; 5 h): 38%; % remaining iso, 7 h ([1]; 7 h): 13%; % remaining iso, 8 h ([1]; 8 h): 3%; Duration of the antinociceptive effect (rats; [6]): continued throughout the experiment; Antinociceptive effect, treated versus untreated (contralateral) paw (rats): significant (P<0.05) antinociceptive effect |
| CN1CCCC1=O [NMP, N-Methyl-2-pyrrolidone] |  |  |  |  |  |  |  |  |  |  |  |  |  |  |  |  |  |  |  |  | Effect of the solvent on the volatility of isoflurane [1]: reduced the volatility of isoflurane |
| FCOC(C(F)(F)F)C(F)(F)F [Sevoflurane, fluoromethyl 2,2,2-trifluoro-1-(trifluoromethyl) ethyl ether] | 14.65 s and 13.82 s and 13.14 s and 12.98 s | 13.65 | 14.90 s and 13.38 s and 12.34 s and 11.83 s | 13.81 s and 17.19 s and 14.98 s and 10.31 s | 15.11 s and 12.31 s and 11.03 s and 12.66 s | 13.23 s and 14.29 s and 13.93 s and 13.20 s | 14.83 s and 12.01 s and 14.16 s and 12.31 s | 16.03 s and 13.75 s and 12.37 s and 17.59 s | 8.61 s and 8.35 s and 8.89 s and 9.54 s | 8.84 | 8.54 s and 6.87 s and 8.44 s and 10.93 s | 9.23 s and 7.38 s and 10.05 s and 9.55 s | 8.29 s and 7.99 s and 11.74 s and 6.68 s | 7.30 s and 8.92 s and 9.32 s and 8.67 s | 8.87 s and 8.10 s and 6.13 s and 12.11 s | 9.43 s and 10.83 s and 7.66 s and 9.27 s | None of the rats in the study experienced adverse effects | 30 | analgesic effect |  |  |
| CCN(CC)CC(=O)Nc1c(C)cccc1C [lidocaine] |  |  |  |  |  |  |  |  |  |  |  |  |  |  |  |  |  |  |  | 5 | Peak of the antinociceptive effect (rats; [6]): 15 min; Return of the antinociceptive effect to baseline levels (rats; [6]): 45 min; Antinociceptive effect, treated versus untreated (contralateral) paw (rats): significant antinociceptive effect |
| CC(O)CO (stereo not drawn) [propylene glycol] |  |  |  |  |  |  |  |  |  |  |  |  |  |  |  |  |  |  |  |  | Reduction of isoflurane volatility compared with NMP ([1]; Table 10 versus Table 8): not as good as NMP; Effect of the solvent on the volatility of isoflurane [1]: reduced the volatility of isoflurane |
